Reference: patent publication US20190185518A9, “WARHEAD-CONTAINING PEPTIDOMIMETIC MACROCYCLES AS MODULATORS OF BFL-1” (AILERON Therapeutics, Inc., priority 2017, published 2019)
Starred links: 1 amine or outer side, 2 acyl side, 3 side chain; linkers in the order of their positions; H or OH if unused. Positions of bridges follow the written chain, without caps; N, C: chain ends. Non-standard residues stand in square brackets, D forms with d. Residues, ends and D or L forms follow the SMILES beside them. Phe(4-F) = N[C@@H](Cc1ccc(F)cc1)C(=O)O; X1 = CC(C)CCC[C@H](N[*:1])C(=O)[*:2]; tBuAla = CC(C)(C)C[C@H](N)C(=O)O; R8 = C=CCCCCCC[C@@](C)(N)C(=O)O; S5 = C=CCCC[C@](C)(N)C(=O)O

target: Mcl-1 (Homo sapiens, UniProt Q07820); test: Ki determination for Mcl-1 (BCL-2 family binding spectrum); settings: read-out: Ki MCL-1
Sequence (Q07820 whole entry, species assumed): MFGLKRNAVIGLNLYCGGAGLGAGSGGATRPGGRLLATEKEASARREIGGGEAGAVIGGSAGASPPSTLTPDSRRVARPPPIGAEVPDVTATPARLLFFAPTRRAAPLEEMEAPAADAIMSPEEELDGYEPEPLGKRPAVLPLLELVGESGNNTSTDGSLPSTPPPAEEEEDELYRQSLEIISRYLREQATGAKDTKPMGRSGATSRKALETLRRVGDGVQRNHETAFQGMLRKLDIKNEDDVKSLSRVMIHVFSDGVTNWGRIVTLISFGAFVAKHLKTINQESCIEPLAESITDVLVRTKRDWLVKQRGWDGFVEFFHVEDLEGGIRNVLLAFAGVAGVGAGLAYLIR
Text: To assess the binding and affinity of compounds that antagonize the interaction between a peptide and an acceptor protein, a fluorescence polarization assay (FPA) utilizing a fluoresceinated peptidomimetic macrocycle derived from a peptidomimetic precursor sequence is used, for example. The FPA technique measures the molecular orientation and mobility using polarized light and fluorescent tracer. […] A compound that antagonizes the interaction between the fluoresceinated peptidomimetic macrocycle and an acceptor protein will be detected in a competitive binding FPA experiment.
Antagonist binding activity is measured, for example, by fluorescence polarization on a luminescence spectrophotometer (e.g. Perkin-Elmer LS50B). Kd values may be determined by nonlinear regression analysis using, for example, Graphpad Prism software (GraphPad Software, Inc., San Diego, Calif.).

| Compound | Ki [nM] |
| --- | --- |
| CC[C@H](C)[C@H](NC(C)=O)C(=O)N[C@@H](Cc1c[nH]c2ccccc12)C(=O)N[C@H](C(=O)N[C@@H](C)C(=O)N[C@@H](CCC(N)=O)C(=O)N[C@@H](C)C(=O)N[C@@H](CC(C)C)C(=O)N[C@@H](CCCNC(=N)N)C(=O)N[C@]1(C)CCCCCCC=CCCC[C@@](C)(C(=O)N[C@@H](Cc2ccc(O)cc2)C(=O)N[C@@H](Cc2ccc(O)cc2)C(=O)N[C@@H](C)C(=O)N[C@@H](CCCNC(=N)N)C(=O)N[C@@H](CCCNC(=N)N)C(N)=O)NC(=O)[C@H](CC(N)=O)NC(=O)[C@H](Cc2ccccc2)NC(=O)[C@H](CCC(=O)O)NC(=O)[C@H](CC(=O)O)NC(=O)CNC(=O)[C@H]([C@@H](C)CC)NC1=O)[C@@H](C)CC [compound 1628] (Ac-IWIAQALR[R8]IGDEFN[S5]YYARR-NH2; staple 9-16) | 10.6 |
| CC[C@H](C)[C@H](NC(C)=O)C(=O)N[C@@H](C)C(=O)N[C@H](C(=O)N[C@@H](C)C(=O)N[C@@H](CCC(N)=O)C(=O)N[C@@H](C)C(=O)N[C@@H](CC(C)C)C(=O)N[C@@H](CCCNC(=N)N)C(=O)N[C@]1(C)CCCCCCC=CCCC[C@@](C)(C(=O)N[C@@H](Cc2ccc(O)cc2)C(=O)N[C@@H](Cc2ccc(O)cc2)C(=O)N[C@@H](C)C(N)=O)NC(=O)[C@H](CC(N)=O)NC(=O)[C@H](Cc2ccccc2)NC(=O)[C@H](C)NC(=O)[C@H](CC(=O)O)NC(=O)CNC(=O)[C@H]([C@@H](C)CC)NC1=O)[C@@H](C)CC [compound 1648] (Ac-IAIAQALR[R8]IGDAFN[S5]YYA-NH2; staple 9-16) | 19.7 |
| CC[C@H](C)[C@H](NC(C)=O)C(=O)N[C@@H](Cc1c[nH]c2ccccc12)C(=O)N[C@@H](CCCC(C)C)C(=O)N[C@@H](C)C(=O)N[C@@H](CCC(N)=O)C(=O)N[C@@H](C)C(=O)N[C@@H](CC(C)C)C(=O)N[C@@H](CCCNC(=N)N)C(=O)N[C@]1(C)CCCCCCC=CCCC[C@@](C)(C(=O)N[C@@H](Cc2ccc(O)cc2)C(=O)N[C@@H](Cc2ccc(O)cc2)C(=O)N[C@@H](C)C(N)=O)NC(=O)[C@H](CC(N)=O)NC(=O)[C@H](Cc2ccccc2)NC(=O)[C@H](C)NC(=O)[C@H](CC(=O)O)NC(=O)CNC(=O)[C@H]([C@@H](C)CC)NC1=O [compound 1678] (Ac-IW[X1]AQALR[R8]IGDAFN[S5]YYA-NH2; staple 9-16) | 21.2 |
| CC[C@H](C)[C@H](NC(C)=O)C(=O)N[C@@H](Cc1c[nH]c2ccccc12)C(=O)N[C@H](C(=O)N[C@@H](C)C(=O)N[C@@H](CCC(N)=O)C(=O)N[C@@H](C)C(=O)N[C@@H](CC(C)C)C(=O)N[C@@H](CCCNC(=N)N)C(=O)N[C@]1(C)CCCCCC/C=C\CCC[C@@](C)(C(=O)N[C@@H](Cc2ccc(O)cc2)C(=O)N[C@@H](Cc2ccc(O)cc2)C(=O)N[C@@H](C)C(N)=O)NC(=O)[C@H](CC(N)=O)NC(=O)[C@H](Cc2ccccc2)NC(=O)[C@H](C)NC(=O)[C@H](CC(=O)O)NC(=O)CNC(=O)[C@H](CC(C)(C)C)NC1=O)[C@@H](C)CC [compound 1701] (Ac-IWIAQALR[R8][tBuAla]GDAFN[S5]YYA-NH2; staple (Z) 9-16) | 13.7 |
| CC[C@H](C)[C@H](NC(C)=O)C(=O)N[C@@H](Cc1c[nH]c2ccccc12)C(=O)N[C@H](C(=O)N[C@@H](C)C(=O)N[C@@H](CCC(N)=O)C(=O)N[C@@H](C)C(=O)N[C@@H](CC(C)C)C(=O)N[C@@H](CCCNC(=N)N)C(=O)N[C@]1(C)CCCCCCC=CCCC[C@@](C)(C(=O)N[C@@H](Cc2ccc(O)cc2)C(=O)N[C@@H](Cc2ccc(F)cc2)C(=O)N[C@@H](C)C(N)=O)NC(=O)[C@H](CC(N)=O)NC(=O)[C@H](Cc2ccccc2)NC(=O)[C@H](C)NC(=O)[C@H](CC(=O)O)NC(=O)CNC(=O)[C@H]([C@@H](C)CC)NC1=O)[C@@H](C)CC [compound 1710] (Ac-IWIAQALR[R8]IGDAFN[S5]Y[Phe(4-F)]A-NH2; staple 9-16) | 4.8 |
| CC[C@H](C)[C@H](NC(=O)[C@H](Cc1c[nH]c2ccccc12)NC(=O)[C@H](CCC(=O)O)NC(C)=O)C(=O)N[C@@H](C)C(=O)N[C@@H](C)C(=O)N[C@@H](C)C(=O)N[C@@H](CC(C)C)C(=O)N[C@@H](CCCNC(=N)N)C(=O)N[C@]1(C)CCCCCCC=CCCC[C@@](C)(C(=O)N[C@@H](Cc2ccc(O)cc2)C(=O)N[C@@H](Cc2ccc(O)cc2)C(=O)N[C@@H](C)C(N)=O)NC(=O)[C@H](CC(N)=O)NC(=O)[C@H](Cc2ccccc2)NC(=O)[C@H](C)NC(=O)[C@H](CC(=O)O)NC(=O)CNC(=O)[C@H]([C@@H](C)CC)NC1=O [compound 1716] (Ac-EWIAAALR[R8]IGDAFN[S5]YYA-NH2; staple 9-16) | 2.2 |
| CC[C@H](C)[C@H](NC(=O)[C@H](Cc1c[nH]c2ccccc12)NC(=O)[C@H](CCCCN)NC(C)=O)C(=O)N[C@@H](C)C(=O)N[C@@H](C)C(=O)N[C@@H](C)C(=O)N[C@@H](CC(C)C)C(=O)N[C@@H](CCCNC(=N)N)C(=O)N[C@]1(C)CCCCCCC=CCCC[C@@](C)(C(=O)N[C@@H](Cc2ccc(O)cc2)C(=O)N[C@@H](Cc2ccc(O)cc2)C(=O)N[C@@H](C)C(N)=O)NC(=O)[C@H](CC(N)=O)NC(=O)[C@H](Cc2ccccc2)NC(=O)[C@H](C)NC(=O)[C@H](CC(=O)O)NC(=O)CNC(=O)[C@H]([C@@H](C)CC)NC1=O [compound 1718] (Ac-KWIAAALR[R8]IGDAFN[S5]YYA-NH2; staple 9-16) | 3.9 |
| CC[C@H](C)[C@H](NC(=O)[C@H](Cc1c[nH]c2ccccc12)NC(=O)[C@H](Cc1c[nH]cn1)NC(C)=O)C(=O)N[C@@H](C)C(=O)N[C@@H](C)C(=O)N[C@@H](C)C(=O)N[C@@H](CC(C)C)C(=O)N[C@@H](CCCNC(=N)N)C(=O)N[C@]1(C)CCCCCCC=CCCC[C@@](C)(C(=O)N[C@@H](Cc2ccc(O)cc2)C(=O)N[C@@H](Cc2ccc(O)cc2)C(=O)N[C@@H](C)C(N)=O)NC(=O)[C@H](CC(N)=O)NC(=O)[C@H](Cc2ccccc2)NC(=O)[C@H](C)NC(=O)[C@H](CC(=O)O)NC(=O)CNC(=O)[C@H]([C@@H](C)CC)NC1=O [compound 1719] (Ac-HWIAAALR[R8]IGDAFN[S5]YYA-NH2; staple 9-16) | 3.6 |
| CC[C@H](C)[C@H](NC(=O)[C@H](Cc1c[nH]c2ccccc12)NC(=O)[C@H](CO)NC(C)=O)C(=O)N[C@@H](C)C(=O)N[C@@H](C)C(=O)N[C@@H](C)C(=O)N[C@@H](CC(C)C)C(=O)N[C@@H](CCCNC(=N)N)C(=O)N[C@]1(C)CCCCCCC=CCCC[C@@](C)(C(=O)N[C@@H](Cc2ccc(O)cc2)C(=O)N[C@@H](Cc2ccc(O)cc2)C(=O)N[C@@H](C)C(N)=O)NC(=O)[C@H](CC(N)=O)NC(=O)[C@H](Cc2ccccc2)NC(=O)[C@H](C)NC(=O)[C@H](CC(=O)O)NC(=O)CNC(=O)[C@H]([C@@H](C)CC)NC1=O [compound 1720] (Ac-SWIAAALR[R8]IGDAFN[S5]YYA-NH2; staple 9-16) | 3.9 |
| CC[C@H](C)[C@H](NC(=O)[C@H](Cc1c[nH]c2ccccc12)NC(=O)[C@H](CCC(N)=O)NC(C)=O)C(=O)N[C@@H](C)C(=O)N[C@@H](C)C(=O)N[C@@H](C)C(=O)N[C@@H](CC(C)C)C(=O)N[C@@H](CCCNC(=N)N)C(=O)N[C@]1(C)CCCCCCC=CCCC[C@@](C)(C(=O)N[C@@H](Cc2ccc(O)cc2)C(=O)N[C@@H](Cc2ccc(O)cc2)C(=O)N[C@@H](C)C(N)=O)NC(=O)[C@H](CC(N)=O)NC(=O)[C@H](Cc2ccccc2)NC(=O)[C@H](C)NC(=O)[C@H](CC(=O)O)NC(=O)CNC(=O)[C@H]([C@@H](C)CC)NC1=O [compound 1721] (Ac-QWIAAALR[R8]IGDAFN[S5]YYA-NH2; staple 9-16) | 4.8 |
| CC[C@H](C)[C@H](NC(=O)[C@H](Cc1c[nH]c2ccccc12)NC(=O)[C@H](C)NC(C)=O)C(=O)N[C@@H](C)C(=O)N[C@@H](C)C(=O)N[C@@H](C)C(=O)N[C@@H](CC(C)C)C(=O)N[C@@H](CCCNC(=N)N)C(=O)N[C@]1(C)CCCCCCC=CCCC[C@@](C)(C(=O)N[C@@H](Cc2ccc(O)cc2)C(=O)N[C@@H](Cc2ccc(O)cc2)C(=O)N[C@@H](C)C(N)=O)NC(=O)[C@H](CC(N)=O)NC(=O)[C@H](Cc2ccccc2)NC(=O)[C@H](C)NC(=O)[C@H](CC(=O)O)NC(=O)CNC(=O)[C@H]([C@@H](C)CC)NC1=O [compound 1722] (Ac-AWIAAALR[R8]IGDAFN[S5]YYA-NH2; staple 9-16) | 3.8 |
| CC[C@H](C)[C@H](NC(C)=O)C(=O)N[C@@H](Cc1c[nH]cn1)C(=O)N[C@H](C(=O)N[C@@H](C)C(=O)N[C@@H](C)C(=O)N[C@@H](C)C(=O)N[C@@H](CC(C)C)C(=O)N[C@@H](CCCNC(=N)N)C(=O)N[C@]1(C)CCCCCCC=CCCC[C@@](C)(C(=O)N[C@@H](Cc2ccc(O)cc2)C(=O)N[C@@H](Cc2ccc(O)cc2)C(=O)N[C@@H](C)C(N)=O)NC(=O)[C@H](CC(N)=O)NC(=O)[C@H](Cc2ccccc2)NC(=O)[C@H](C)NC(=O)[C@H](CC(=O)O)NC(=O)CNC(=O)[C@H]([C@@H](C)CC)NC1=O)[C@@H](C)CC [compound 1727] (Ac-IHIAAALR[R8]IGDAFN[S5]YYA-NH2; staple 9-16) | 6.6 |
| CC[C@H](C)[C@H](NC(C)=O)C(=O)N[C@@H](CC(C)C)C(=O)N[C@H](C(=O)N[C@@H](C)C(=O)N[C@@H](C)C(=O)N[C@@H](C)C(=O)N[C@@H](CC(C)C)C(=O)N[C@@H](CCCNC(=N)N)C(=O)N[C@]1(C)CCCCCCC=CCCC[C@@](C)(C(=O)N[C@@H](Cc2ccc(O)cc2)C(=O)N[C@@H](Cc2ccc(O)cc2)C(=O)N[C@@H](C)C(N)=O)NC(=O)[C@H](CC(N)=O)NC(=O)[C@H](Cc2ccccc2)NC(=O)[C@H](C)NC(=O)[C@H](CC(=O)O)NC(=O)CNC(=O)[C@H]([C@@H](C)CC)NC1=O)[C@@H](C)CC [compound 1730] (Ac-ILIAAALR[R8]IGDAFN[S5]YYA-NH2; staple 9-16) | 10.2 |
